From PubChem BioAssay AID248 (DTP/NCI, 2004)
Several values for one entry are separate records, joined by “and”; a condition that tells them apart may be missing. Equal entries are not always repeated. Toxic doses and inconclusive results are not listed. Rule as the data show it: active = T/C of 150% or more; inactive = T/C below 125%.

Test system: L1210 leukemia ip in BDF1 mice, survival T/C
Assay: NCI In Vivo Anticancer Drug Screen. Data for tumor model L1210 Leukemia (intraperitoneal) in B6D2F1 (BDF1) mice
Details: endpoint: mean survival time, higher = longer survival
In short: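 Tumor cells were implanted, animals were treated, and survival was followed. The result divides the treated measurement by the vehicle-control measurement.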

[1] = dose: 50.0 mg/kg/injection, schedule: Q04DX003 (ip), vehicle: saline with Tween-80
[2] = dose: 100.0 mg/kg/injection, schedule: Q04DX003 (ip), vehicle: saline with Tween-80
[3] = dose: 100.0 mg/kg/injection, schedule: Q04DX003 (ip), vehicle: Klucel (hydroxypropylcellulose) (HPC)
[4] = dose: 200.0 mg/kg/injection, schedule: Q04DX003 (ip), vehicle: Klucel (hydroxypropylcellulose) (HPC)
[5] = dose: 400.0 mg/kg/injection, schedule: Q04DX003 (ip), vehicle: Klucel (hydroxypropylcellulose) (HPC)
[6] = dose: 100.0 mg/kg/injection, schedule: Q01DX009 (ip), vehicle: saline with Tween-80
[7] = dose: 100.0 mg/kg/injection, schedule: Q01DX009 (ip), vehicle: saline
[8] = dose: 100.0 mg/kg/injection, schedule: Q04DX003 (ip), vehicle: saline
[9] = dose: 200.0 mg/kg/injection, schedule: Q04DX003 (ip), vehicle: saline

Measured: T/C

CCCCCCCCCCCCCCCCNC(=O)C[N+](C)(C)Cc1ccccc1
inactive: dose: 2.5 mg/kg/injection, schedule: Q01DX009 (ip), vehicle: saline with Tween-80 101 % of control | dose: 5.0 mg/kg/injection, schedule: Q01DX009 (ip), vehicle: saline with Tween-80 98 % of control

CC(=O)OC1C2C=CC(C2)C1OC(C)=O (stereo not given)
inactive: dose: 100.0 mg/kg/injection, schedule: Q01DX001 (ip), vehicle: other 100 % of control | dose: 200.0 mg/kg/injection, schedule: Q01DX001 (ip), vehicle: other 106 % of control | dose: 400.0 mg/kg/injection, schedule: Q01DX001 (ip), vehicle: other 112 % of control

COC(=O)C1CC(NC(C)=O)C(OC(C)=O)C1OC(C)=O (stereo not given)
inactive: dose: 100.0 mg/kg/injection, schedule: Q01DX001 (ip), vehicle: saline 94 % of control | dose: 200.0 mg/kg/injection, schedule: Q01DX001 (ip), vehicle: saline 94 % of control | dose: 400.0 mg/kg/injection, schedule: Q01DX001 (ip), vehicle: saline 104 % of control

O=C(CC(=O)c1ccccc1)Nc1ccccc1
inactive: dose: 100.0 mg/kg/injection, schedule: Q01DX001 (ip), vehicle: gum acacia 103 % of control and 104 % of control | dose: 100.0 mg/kg/injection, schedule: Q01DX009 (ip), vehicle: gum acacia 95 % of control and 104 % of control | dose: 100.0 mg/kg/injection, schedule: Q04DX002 (ip), vehicle: gum acacia 100 % of control and 88 % of control | dose: 100.0 mg/kg/injection, schedule: Q04DX003 (ip), vehicle: gum acacia 96 % of control and 91 % of control | dose: 200.0 mg/kg/injection, schedule: Q01DX001 (ip), vehicle: gum acacia 96 % of control and 97 % of control | dose: 200.0 mg/kg/injection, schedule: Q01DX009 (ip), vehicle: gum acacia 92 % of control | dose: 200.0 mg/kg/injection, schedule: Q04DX002 (ip), vehicle: gum acacia 98 % of control and 90 % of control | dose: 200.0 mg/kg/injection, schedule: Q04DX003 (ip), vehicle: gum acacia 96 % of control and 88 % of control | dose: 400.0 mg/kg/injection, schedule: Q01DX001 (ip), vehicle: gum acacia 92 % of control and 93 % of control | dose: 400.0 mg/kg/injection, schedule: Q01DX009 (ip), vehicle: gum acacia 102 % of control | dose: 400.0 mg/kg/injection, schedule: Q04DX002 (ip), vehicle: gum acacia 94 % of control and 91 % of control | dose: 400.0 mg/kg/injection, schedule: Q04DX003 (ip), vehicle: gum acacia 93 % of control and 94 % of control

FC(F)(F)c1ccc2c(c1)N(CCCN(CCCl)CCCl)c1ccccc1S2
inactive: dose: 3.12 mg/kg/injection, schedule: Q01DX001 (ip), vehicle: saline with Tween-80 102 % of control | dose: 3.12 mg/kg/injection, schedule: Q01DX009 (ip), vehicle: saline with Tween-80 102 % of control | dose: 6.25 mg/kg/injection, schedule: Q01DX001 (ip), vehicle: saline with Tween-80 102 % of control | dose: 6.25 mg/kg/injection, schedule: Q01DX009 (ip), vehicle: saline with Tween-80 98 % of control | dose: 12.5 mg/kg/injection, schedule: Q01DX001 (ip), vehicle: saline with Tween-80 100 % of control | dose: 12.5 mg/kg/injection, schedule: Q01DX009 (ip), vehicle: saline with Tween-80 100 % of control | dose: 12.5 mg/kg/injection, schedule: Q04DX003 (ip), vehicle: saline with Tween-80 102 % of control | dose: 25.0 mg/kg/injection, schedule: Q04DX003 (ip), vehicle: saline with Tween-80 113 % of control | [1] 98 % of control | [2] 113 % of control

CC(C)(C)C1([Si](C)(C)C)SCCCS1
inactive: dose: 100.0 mg/kg/injection, schedule: Q04DX002 (ip), vehicle: other 114 % of control | dose: 200.0 mg/kg/injection, schedule: Q04DX002 (ip), vehicle: other 108 % of control | dose: 400.0 mg/kg/injection, schedule: Q04DX002 (ip), vehicle: other 101 % of control

O=C1OCCN1S(=O)(=O)c1ccc(Cl)cc1
inactive: [3] 104 % of control | [4] 95 % of control | [5] 96 % of control

Cc1ccc(C)c(CCN)c1
inactive: dose: 25.0 mg/kg/injection, schedule: Q01DX009 (ip), vehicle: saline with Tween-80 103 % of control | dose: 50.0 mg/kg/injection, schedule: Q01DX009 (ip), vehicle: saline with Tween-80 98 % of control | [1] 100 % of control | [6] 94 % of control | [2] 92 % of control

Nc1cc(Cl)ccc1N1CCCCC1
inactive: [6] 114 % of control | dose: 200.0 mg/kg/injection, schedule: Q01DX009 (ip), vehicle: saline with Tween-80 97 % of control | dose: 400.0 mg/kg/injection, schedule: Q01DX009 (ip), vehicle: saline with Tween-80 106 % of control

CCN(CC)C(C)COC(=O)c1cc(=O)n(C)c2ccccc12 (stereo not given)
inactive: dose: 50.0 mg/kg/injection, schedule: Q01DX009 (ip), vehicle: saline 101 % of control | [7] 98 % of control | [8] 95 % of control | dose: 200.0 mg/kg/injection, schedule: Q01DX009 (ip), vehicle: saline 89 % of control | [9] 97 % of control

COc1cc(C(=O)CC(O)(C(F)(F)F)C(F)(F)F)cc(OC)c1OC
inactive: dose: 50.0 mg/kg/injection, schedule: Q01DX009 (ip), vehicle: Klucel (hydroxypropylcellulose) (HPC) 95 % of control | dose: 100.0 mg/kg/injection, schedule: Q01DX001 (ip), vehicle: Klucel (hydroxypropylcellulose) (HPC) 86 % of control | dose: 100.0 mg/kg/injection, schedule: Q01DX009 (ip), vehicle: Klucel (hydroxypropylcellulose) (HPC) 97 % of control | dose: 200.0 mg/kg/injection, schedule: Q01DX001 (ip), vehicle: Klucel (hydroxypropylcellulose) (HPC) 100 % of control | dose: 200.0 mg/kg/injection, schedule: Q01DX009 (ip), vehicle: Klucel (hydroxypropylcellulose) (HPC) 98 % of control

COC(=O)/C=C\C=C\C(=O)OC
inactive: dose: 50.0 mg/kg/injection, schedule: Q01DX001 (ip), vehicle: carboxymethylcellulose (CMC) 95 % of control | dose: 100.0 mg/kg/injection, schedule: Q01DX001 (ip), vehicle: carboxymethylcellulose (CMC) 94 % of control | dose: 200.0 mg/kg/injection, schedule: Q01DX001 (ip), vehicle: carboxymethylcellulose (CMC) 98 % of control | dose: 400.0 mg/kg/injection, schedule: Q01DX001 (ip), vehicle: carboxymethylcellulose (CMC) 98 % of control

COc1ccc(CC2C(=O)OC(=O)C2Cc2ccc(OC)c(OC)c2)cc1OC (stereo not given)
inactive: [2] 91 % of control | dose: 200.0 mg/kg/injection, schedule: Q04DX003 (ip), vehicle: saline with Tween-80 104 % of control | dose: 400.0 mg/kg/injection, schedule: Q04DX003 (ip), vehicle: saline with Tween-80 94 % of control

O=C(O)C1CCCC[N-]1.O=C(O)C1CCCC[N-]1.O=C(O)C1CCCC[N-]1.O=C(O)C1CCCC[N-]1.[Cl][Rh][Cl] (stereo not given)
inactive: dose: 12.5 mg/kg/injection, schedule: Q01DX008 (ip), vehicle: water 98 % of control | dose: 25.0 mg/kg/injection, schedule: Q01DX008 (ip), vehicle: water 98 % of control | dose: 50.0 mg/kg/injection, schedule: Q01DX008 (ip), vehicle: water 103 % of control | dose: 100.0 mg/kg/injection, schedule: Q01DX008 (ip), vehicle: water 97 % of control | [7] 93 % of control | [8] 102 % of control | [9] 100 % of control | dose: 400.0 mg/kg/injection, schedule: Q04DX003 (ip), vehicle: saline 96 % of control

CN(C)c1ccc(CC2Cc3ccccc3C2=O)cc1 (stereo not given)
inactive: dose: 100.0 mg/kg/injection, schedule: Q01DX009 (ip), vehicle: other 96 % of control | [3] 117 % of control | dose: 200.0 mg/kg/injection, schedule: Q01DX009 (ip), vehicle: other 89 % of control | [4] 103 % of control | dose: 400.0 mg/kg/injection, schedule: Q01DX009 (ip), vehicle: other 91 % of control | [5] 98 % of control
